Source: patent US4151281A, “Medicinal preparation for the treatment of collagenoses of a rheumatoid nature” (priority 1977, dated 1979)

Tests used:
systemic scleroderma [1] = details: known preparations; cited from earlier work
[2] = cited from earlier work
[3] = chronic toxicity test, daily doses for three months, white rats; type: in vivo; details: for Index of anti-toxic function of the liver (quantity of isolated benzoic acid): P = 0.05
Method: […] Each dose was investigated in 20 animals (10 males and 10 females). Twenty rats served as controls. Changes in weight were recorded, the general status and behavior were observed, the peripheral blood picture was examined (hemoglobin, erythrocytes, leukocytes, thrombocytes, the leukocytary formula). For determining the functional state of the liver, kidneys, the pancreas, some biochemical indices of the urine (albumin, sugar, bile pigments) and the blood (sugar, cholesterol, bilirubin, urea, alkaline phosphatase, chlorides) were examined, just as the antitoxic function of the liver.
After the end of the tests the animals were slaughtered by decapitation: part of them immediately after the administration of the preparation, part-ten days later.
The internal organs of the slaughtered animals were examined both macro- and microscopically.

[4] = test system: systemic lupus erythematosus; experiment: clinical treatment of systemic lupus erythematosus; type: in vivo, patients
Method: (§1) The method of treatment consists in oral administration of the proposed preparation in 0.1 to 0.2 g doses in tablet form […], or in the form of a 5% solution for injections with 5 ml doses once a day. The daily dose shall not be over 0.6 g per patient.
Eight patients were treated for systemic lupus erythematosus.

[5] = single administration by probe into the stomach to narcotized cats; type: in vivo
Method: After a 1,000 mg/kg dose, these symptoms are more pronounced.

[6] = acute toxicity, single dose by probe into the stomach, albino mice, 3 days observation (Litchfield and Wilcoxson); details: mouse, in vivo, po, albino mice 16-17 g, limits in parentheses
Method: The proposed preparation was tested for toxicity in the acute and chronic tests. The acute toxicity of the preparation was determined in tests in albino mice (weighing 16 to 17 g) by introducing (by means of a probe into the stomach) amounts equal to 1,000 to 5,000 mg/kg of the animals body weight. Each dose was tested in five animals. Observation was continued for three days.

systemic scleroderma [7] = experiment: clinical treatment of systemic scleroderma; type: in vivo, patients
Method: as §1
Five patients were treated for systemic scleroderma. […] One of these patients, following a 1.5 year course of treatment, resumed work after a three-year interval caused by the disease.

rheumatoid arthritis = experiment: clinical trial in patients with rheumatoid arthritis; type: in vivo
Method: as §1
The main group (69 persons) consisted of patients with rheumatoid arthritis in the 2nd and 3rd degree of activity.

adrenal cortex = experiment: corticosteroid concentration in the blood of rheumatoid arthritis or systemic lupus erythematosus patients during clinical trials; type: in vivo; details: regularly given
Source text: Accordingly, the observed increase of the concentration of corticosteroids in the blood of rheumatoid arthritis or systemic lupus erythematosus patients, regularly given the proposed preparation during clinical trials in the above mentioned doses, testifies to its stimulating effect on the andrenal cortex.

[8] = side effects and action on lasting administration, compared with known remedies for collagenoses; type: in vivo
normal fibroblasts = experiment: 48-hour study of effect on cell growth in a culture of normal fibroblasts from healthy donors; type: cell-based; details: Fibroblast, 100-gamma per 1 ml of medium, read-out: reduction of the number of cells in the culture
Source text: This fact explains to a certain degree the action mechanism of the preparation in cases of systemic scleroderma.

[9] = most of the patients, continued treatment

CC(C)Cc1ccc(C(C)C(=O)O)cc1 (stereo not shown) [Brufen]
whether the above results are produced in systemic scleroderma (systemic scleroderma [1]): not produced

CCN(CC)CCCC(C)Nc1ccnc2cc(Cl)ccc12 (stereo not shown) [Delagil]
complications of antimalarial preparations ([2]; treatment of collagenoses of a rheumatoid nature): cause leukopenia, and also affect the acoustic and optic nerves, the liver, the myocardium

COc1ccc2c(c1)c(CC(=O)O)c(C)n2C(=O)c1ccc(Cl)cc1 [Indometacin]
whether the above results are produced in systemic scleroderma (systemic scleroderma [1]): not produced | mental disorders ([2]; derivatives of indole): confused consciousness, somnolency | ulcerogenic effect ([2]; derivatives of indole, ulceration of the stomach, esophagus, the intestine): possess an ulcerogenic effect

Cc1[nH]c(=O)[nH]c(=O)c1S(=O)(=O)Nc1ccc(S(=O)(=O)c2ccc(NS(=O)(=O)c3c(C)[nH]c(=O)[nH]c3=O)cc2)cc1 [preparation, p,p-/2,4-dioxy-6-methyl pyrimidinyl-5-sulfonamino/diphenyl sulfone]
Index of anti-toxic function of the liver (quantity of isolated benzoic acid) ([3]; females, after 3 months of 100 mg/kg oral doses (controls 10.1±5.1)): 10.9±2.2 | Index of anti-toxic function of the liver (quantity of isolated benzoic acid) ([3]; males, after 3 months of 100 mg/kg oral doses (controls 6.68±0.33)): 6.5±1.14 | fattiness at post mortem examination ([3]; rat, in vivo): good fattiness | macro- and microscopic examination of organs ([3]; rat, in vivo): no pathological changes | weight of thyroid gland, testes, spleen and adrenal glands versus control group ([3]; rat, in vivo): did not differ | complete recovery ([4]; of eight patients, intake for two years): one | effect in the other cases on complications due to corticosteroids and quinoline preparations ([4]; other cases of eight patients): substantially alleviate the complications | symptoms ([5]; single 500 mg/kg): unrest is observed (motorial excitation, mewing, salivation and vomiting) | time after administration at which unrest is observed ([5]; single 500 mg/kg): 10 to 20 min | condition on the second day after administration ([5]; single 1,000 mg/kg): returned to normal | symptoms ([5]; single 1,000 mg/kg): these symptoms are more pronounced. There is repeated vomiting and loss of appetite | visible changes ([5]; single 100 to 200 mg/kg): no visible changes | LD50 at 72 h [6]: 2600 mg/kg | reduction of skin induration, flexion contracture of the hand and sensation of skin tension (systemic scleroderma [7]; five patients): All of them manifested a reduction | patients who resumed work (systemic scleroderma [7]; of five patients, 1.5 year course, after a three-year interval): One | articular index after treatment, average (rheumatoid arthritis; 61 patients, from 46-48 points): 16-20 points | gravest patients who became capable of taking care of themselves unaided (rheumatoid arthritis; administration for 1.5 to 2 years, three bed-ridden for 3 to 5 years): Eight | first compression force after treatment, average (rheumatoid arthritis; all the patients, from 14.4±1.7 kgf): 22.0±2.1 kgf | corticosteroid content in the blood (rheumatoid arthritis; due to the increasing activity of the 11-oxicorticosteroids): increase | patients with articular index without change (rheumatoid arthritis; during the period of treatment): 8 patients | patients with reduced articular index (rheumatoid arthritis; during the period of treatment): 61 patients | C-reactive protein after treatment (rheumatoid arthritis; from (++++), most of the patients, continued treatment): (++) and even (+) | patients in whom the pain syndrome disappeared (rheumatoid arthritis; majority of patients, on the 10th to 12th day): 51 | ESR (rheumatoid arthritis; [9]): reduction | reduction of the sialic acid content of the blood (rheumatoid arthritis; [9]): 0.05 optical density units | time to beginning of improvement of therapeutic indices (rheumatoid arthritis; not later than, after the beginning of treatment): 3 to 4 weeks | patients in whom morning-time torpidity disappeared completely (rheumatoid arthritis; of 69 patients): 48 patients | patients managing on essentially reduced doses of corticosteroids (rheumatoid arthritis; of the eight gravest patients): six | patients who do not need corticosteroids any more (rheumatoid arthritis; of the eight gravest patients): two | patients with only an abatement of the pain syndrome (arthralgia) (rheumatoid arthritis; other patients): 18 patients | period of morning-time torpidity after treatment (rheumatoid arthritis; other patients, shortened from 103.3±14.4 min): 41.4 ± 9.73 min | patients with abatement of morning-time torpidity and greater scope of joint movement (rheumatoid arthritis; out of the 69 patients): 59 patients | leukocyte count (rheumatoid arthritis; patients with leukopenias or leukocytoses accompanying rheumatoid arthritis): tendency towards the normalization | pain syndrome towards the end of the first week of treatment (rheumatoid arthritis; rheumatoid arthritis): tangibly abated | patients in whom improvement took much longer (rheumatoid arthritis; rheumatoid arthritis): 8 patients | concentration of corticosteroids in the blood (adrenal cortex): increase | function of the adrenal cortex ([8]; as testified by rising corticosteroids content of the blood): stimulates the function of the adrenal cortex | complications of indole derivatives (ulceration, mental disorders) ([8]; even when used for many years): does not cause such complications | dosage of prescribed corticosteroids ([8]; in vivo): to be reduced and, in individual cases, discontinuing them altogether | general and water-and-salt metabolic disorders ([8]; in vivo): does not cause general and water-and-salt metabolic disorders | toxicity ([8]; in vivo): low toxicity | complications of antimalarials (leukopenia; acoustic and optic nerves, liver, myocardium) ([8]; lasting administration (1-2 years and more)): does not cause the above-mentioned complications | pre-existing metabolic disorders ([8]; when present): tend to normalize | inhibition at 100 µg/mL (normal fibroblasts): 30%
